Tested on: ornithine decarboxylase (ODC)
Experiment: not given
Conditions: general knowledge; cited from earlier work

Compound | effect on ODC activity
CCCCCCCCCCCCCC(=O)O[C@@H]1[C@@H](C)[C@@]2(O)[C@@H](C=C(CO)C[C@]3(O)C(=O)C(C)=C[C@@H]23)[C@@H]2C(C)(C)[C@]12OC(C)=O [12-0-tetradecanoylphorbol-13-acetate] | induces ODC activity
CC1=C(/C=C/C(C)=C/C=C/C(C)=C/C(=O)O)C(C)(C)CCC1 [Retinoic acid] | inhibits this induction of ODC activity by TPA

Tested on: ornithine decarboxylase (ODC)
Experiment: ODC assay: inhibition of TPA induction of ODC activity
Assay type: in vivo
Conditions: at conc 30 (nmol); TPA-induced ODC
Text: The retinoic acid-like activity of these compounds is confirmed through the classic measure of retinoic acid activity involving the effects of retlnoic acid on ornithine decarboxylase. The original work on the correlation between retinoic acid and decrease in cell proliferation was done by Verma & Boutwell, Cancer Research, 1977, 37,2196-2201. That reference discloses that ornithine decarboxylase (ODC) activity increased precedent to polyamine biosynthesis. It has been established elsewhere that increases in polyamine synthesis can be correlated or associated with cellular proliferation. Thus, if ODC activity could be inhibited, cell hyperproliferation could be modulated. […] Activity of exemplary compounds of the present invention in the above- described ODC assay is disclosed in Table 2 which provides either IC80 (or other measured per cent inhibition at the indicated concentration) for the respective exemplary compound.

Compound | % of inhib [%]
CCOC(=O)c1ccc(C#Cc2ccc(OC3CCCCO3)c(C34CC5CC(CC(C5)C3)C4)c2)cc1 (stereo not drawn) [Compound 9] | 49
COC(=O)c1ccc(C#Cc2ccc(OC3CCCCO3)c(C34CC5CC(CC(C5)C3)C4)c2)cc1 (stereo not drawn) [Compound 25] | 61

Same assay, conditions: at conc 300 (nmol); TPA-induced ODC

Compound | % of inhib [%]
O=C(O)c1ccc(C#Cc2ccc(OC3CCCCO3)cc2)nc1 (stereo not drawn) [Compound 15, 6-[2-[[1-(2-tetrahydropyranoxy)]-4-phenyl]ethyn-1-yl]nicotinic acid] | 44
CCOC(=O)c1ccc(C#Cc2cccc(OC3CCCCO3)c2)nc1 (stereo not drawn) [Compound 16, Ethyl 6-[2-[[1-(2-tetrahydropyranoxy)]-3-phenyl]ethyn-1-yl]nicotinate] | 52
CCOC(=O)c1ccc(C#Cc2ccc(C34CC5CC(CC(C5)C3)C4)c(OC3CCCCO3)c2)nc1 (stereo not drawn) [Compound 17] | 68
CCOC(=O)c1ccc(C#Cc2ccc(C34CC5CC(CC(C5)C3)C4)c(OC3CCCCO3)c2)cc1 (stereo not drawn) [Compound 18, Ethyl 4-[2-[[2-(1-adamantyl)-1-(2-tetrahydropyranoxy)]-5-phenyl]ethyn-1-yl]benzoate] | 45
O=C(O)c1ccc(C#Cc2ccc(C34CC5CC(CC(C5)C3)C4)c(OC3CCCCO3)c2)nc1 (stereo not drawn) [Compound 19] | 45

— patent US5847160A, “Acetylenes disubstituted with 2-tetrahydropyranoxy-aryl and aryl of heteroaryl groups having retinoid-like biological activity” (Allergan, priority 1997, dated 1998)
